# From patent US20260248766A1, “GLUCOKINASE ACTIVATOR FOR COGNITIVE DISORDERS AND NEURODEGENERATIVE DISEASES” (HUA MEDICINE (SHANGHAI) LTD., priority 2023, published 2026)
# How the values were obtained:
# Type in all cases: in vivo, rat
# [1] = system: ionotropic glutamate receptor subunit GluN2B; test: Western blot of GluN2B in hippocampus of GK rats; settings: hippocampus of GK rats after long-term treatment; FIG. 12
# From the text: (§1) The tissue sampling, protein extraction and quantification, preparation of the denaturated protein samples, and protein gel electrophoresis were completed successively using the steps (I) to (IV) of the above example 2.
# (§2) Then, the gel obtained from the electrophoresis was used for membrane transfer. Biomarkers GluN2A and GluN2B were transferred to a membrane using a wet transfer method. The membrane was assembled in the following order: negative electrode-sponge-filter paper-gel-PVDF membrane-filter paper-sponge-positive electrode. The membrane transfer was performed at a constant voltage of 100 V in an ice bath for 70 minutes.
# (§3) After the membrane transfer was completed, the PVDF membranes were blocked with BSA or non-fat milk (GluN2A and GluN2B membranes were blocked with BSA, and GAPDH membrane was blocked with non-fat milk), respectively, at room temperature for 1 hour. […] The eluted PVDF membranes were scanned using an electrochemiluminescence (ECL) method with a contact-based non-destructive quantitative imaging instrument (E-blot) to give a western blot image.
# (§4) Calculation of the relative expression level of a protein: The western blot images were quantified using an image processing software ImageJ, and the gray value of a target band was measured and used to characterize the protein expression level of the target band. […]
# [2] = system: glucose transporter 1 (GLUT1); test: Western blot of GLUT1 in hippocampus of GK rats; settings: hippocampus of GK rats after long-term treatment; FIG. 8
# From the text: as §1
# (§5) Then, the gel obtained from the electrophoresis was used for membrane transfer. Biomarkers GLUT1, GLUT3, and GAPDH were transferred to a membrane using a semi-dry transfer method. The membrane was assembled in the following order: negative electrode-filter paper-gel-PVDF membrane-filter paper-positive electrode. The membrane transfer was performed at a constant current of 0.2 A at room temperature for 65 minutes.
# (§6) After the membrane transfer was completed, the PVDF membranes (GLUT1, GLUT3, GAPDH) were blocked with non-fat milk at room temperature for 1 hour.
# (§7) Calculation of the relative expression level of a protein: The western blot images were quantified using an image processing software ImageJ, and the gray value of a target band was measured and used to characterize the protein expression level of the target band. The gray value of a target protein was divided by the gray value of the internal reference protein GAPDH to perform normalization, which characterized the relative expression level of the target band. Statistical analysis was performed on the normalized value of each target band.
# [3] = system: insulin receptor isoform IR-A protein; test: Western blot of IR-A protein in hippocampus of GK rats; settings: hippocampus of GK rats after 37 weeks of treatment (43 weeks old); FIG. 5
# Experimental: (§8) GK rats were euthanized after 37 weeks of treatment, i.e., when the rats were 43 weeks old, and hippocampal tissue of the GK rats was collected for western blotting to detect the protein expression levels of the biomarkers.
# (§9) Animals under anesthesia were rapidly decapitated and their brains were removed in a hypothermic environment. The hippocampal tissue was separated on ice, placed in cryovials, flash-frozen in liquid nitrogen, and then stored in a −80° C. freezer for later use.
# (§10) • (1) The tissue homogenizer (TissueLyser II high-throughput tissue homogenizer, QIAGEN) was pre-cooled at −20° C. The hippocampal tissue was taken out from the −80° C. freezer. […]
# (§11) Based on the protein concentration determined in step (II), an appropriate amount of protein lysis buffer was added to adjust the protein concentration of each group to a suitable level. […]
# (§12) After the membrane transfer was completed, the PVDF membranes were blocked with non-fat milk at room temperature for 1 hour. […] The eluted PVDF membranes were scanned using an electrochemiluminescence (ECL) method with a contact-based non-destructive quantitative imaging instrument (E-blot) to give a western blot image. […]
# [4] = system: ionotropic glutamate receptor subunit GluN2A; test: Western blot of GluN2A in hippocampus of GK rats; settings: hippocampus of GK rats after long-term treatment; FIG. 11
# From the text: as §1, §2, §3, §4
# [5] = system: glucose transporter 3 (GLUT3); test: Western blot of GLUT3 in hippocampus of GK rats; settings: hippocampus of GK rats after long-term treatment; FIG. 9
# From the text: as §1, §5, §6, §7
# GK rats [6] = test: Fasting blood glucose in GK rats under long-term treatment; settings: 8 mg/kg by gavage twice daily from six weeks of age, tested at weeks 6, 8, 12, 16, 20, 29, 31, FIG. 1
# From the text: Goto-Kakizaki (GK) rats are a non-obese, spontaneously occurring type 2 diabetes rat model obtained through repeated inbreeding of Wistar rats with glucose tolerance at the upper limit over several generations. […] The hippocampus is a key functional brain region regulating learning and memory abilities. Due to the presence of progressive diabetes symptoms, typical neurodegenerative diseases, and memory deficits, GK rats can be used to evaluate the effects of a drug on preventing memory decline.
# (§13) GK rats were randomly divided into the following treatment groups: a GK rat-solvent treatment group (n=9) and a GK rat-Dorzagliatin (8 mg/kg) treatment group (n=8). Age-matched Wistar rats were used as the normal control group, i.e., the Wistar rat-solvent group (n=9). The treatment began at six weeks of age. The rats were administered either the solvent or Dorzagliatin by gavage twice daily, morning and evening. Peripheral blood was collected multiple times from the animals throughout the growth cycle, and the fasting blood glucose levels of the animals were tested (the fasting blood glucose levels of the three groups of rats were tested and analyzed at weeks 6, 8, 12, 16, 20, 29, and 31).
# [7] = system: insulin receptor isoform IR-B protein; test: Western blot of IR-B protein in hippocampus of GK rats; settings: hippocampus of GK rats after 37 weeks of treatment (43 weeks old); FIG. 6
# Experimental: as §8, §9, §10, §11, §12
# GK rats [8] = test: Morris water maze spatial memory test (probe test) in GK rats; settings: 8 mg/kg by gavage twice daily, about 27 weeks of treatment (33 weeks old), 1 minute probe test
# Experimental: as §13
# The Morris water maze test is a commonly used behavioral method to assess the spatial memory, working memory, and spatial discrimination abilities of rodents. […]
# Preparation of the experimental environment: The laboratory environment was kept quiet. […] During the test, the latent period of escape, swimming path (distance), speed, and quadrant preference of a rat were recorded using the ANY-maze system. […]
# Spatial memory test (probe test): The spatial memory test was performed 24 hours after the end of the training phase. […] The time spent in the original platform quadrant and the swimming distances were recorded, and the data of each group of animals were statistically analyzed.
smiles,measurement,setting,value
CC(C)C[C@@H](C(=O)Nc1ccn(C[C@@H](O)CO)n1)N1CC(Oc2ccccc2Cl)=CC1=O [Dorzagliatin],"normalized value of GluN2B band (gray value / GAPDH, mean±SEM)",[1],0.87±0.02
same,"normalized value of GLUT1 band (gray value / GAPDH, mean±SEM)",[2],1.67±0.06
same,"normalized value of IR-A protein band (gray value / GAPDH, mean±SEM)",[3],1.46±0.08
same,"normalized value of GluN2A band (gray value / GAPDH, mean±SEM)",[4],1.05±0.07
same,"normalized value of GLUT3 band (gray value / GAPDH, mean±SEM)",[5],1.22±0.13
same,fasting blood glucose levels vs GK rat-solvent group,GK rats [6],significantly lower than those of the GK rat-solvent group
same,"normalized value of IR-B protein band (gray value / GAPDH, mean±SEM)",[7],1.64±0.06
same,time spent in the original platform quadrant (mean±SEM),GK rats [8]; FIG. 2,20.1 s
same,swimming distance in the original platform quadrant (mean±SEM),GK rats [8]; FIG. 3,4.21 m
